# Test results taken from paper PMC10720437, “Non-therapeutic plasma levels in individuals utilizing curcumin supplements in daily life” (Frontiers in Nutrition, 2023).
# Values joined by “and” are separate entries in the source; they are usually repeats but may differ in a detail not shown here. Identical values can stand only once.
# What was measured:
# [1] = test system: CYP3A; set-up: method as in PMID 18480186; settings: cited from earlier work
# [2] = Plasma levels of curcumin, metabolites and piperine by HPLC-MS/MS in participants using their own curcumin formulations; format: in vivo, human
# Description: This study is an observational, open-label study investigating the plasma concentration of curcumin as used in daily life. Each participant was instructed to bring their own curcumin formulation on the day of visit. Participants were asked not to take their curcumin formulation in the morning on the day of visit. Blood was taken just before intake of the curcumin supplement (trough concentration) and 1.5 h after intake (expected peak concentration). Any food or beverage intake between these time points was registered while participants were not allowed to take any additional curcumin in between these two time points.
# Blood was collected in heparinized tubes and protected against light by wrapping in aluminum foil directly after sampling. All samples were centrifuged (Rotina 380R from Hettich) for 10 min at 2754 RCF and 20°C and the obtained plasma was immediately stored, protected from light, at –80°C until analysis.
# To determine the active plasma concentrations of curcumin, demethoxycurcumin, bisdemethoxycurcumin, and tetrahydrocurcumin it is important to highlight the difference between conjugated and unconjugated forms of these different compounds. A way to show this difference is to pretreat each sample with and without β-glucoronidase. In short, we used β-glucoronidase from Sigma-Aldrich (St. Louis, MO, USA), which contained ≥300,000 U/g β-glucoronidase and ≥10,000 U/g sulfatase, which hydrolyzes the hydrophilic glucuronic and sulfate acid group from conjugated curcumin (Figure 1) ([19]). The optimal pH for β-glucoronidase activity is 5.0 ([20]). Although our final mixture of sample plus β-glucoronidase solution has a slightly higher pH, we confirmed that after 1 h incubation at 37°C and 850 repetition per minute (rpm), a plateau was reached. No further conversion of conjugated curcumin into deconjugated curcumin occurred, indicating a complete reaction. Therefore, adding β-glucoronidase/sulfatase mixture results in an increase of unconjugated curcumin, demethoxycurcumin, bisdemethoxycurcumin, and tetrahydrocurcumin by displaying the sum of ‘previous’ conjugated and unconjugated curcuminoids and tetrahydrocurcumin.
# Plasma samples were analyzed by our validated HPLC-MS/MS method ([21]). In short, on the day of analysis, samples were thawed and pretreated with and without β-glucoronidase. The samples treated with β-glucoronidase were incubated with 20 U/μL β-glucuronidase at 37°C and 850 revolutions per minute (RPM) for 1 h. Liquid–liquid extraction with Tert Butyl Methyl Ether (TBME) as organic phase was used to extract the compounds from the plasma. Curcumin, demethoxycurcumin, bisdemethoxycurcumin, tetrahydrocurcumin and piperine were quantified in a single analytical run. The HPLC-MS/MS system consisted of an Ultimate 3000 autosampler and pump, both of Dionex, connected to a degasser from LC Packings. The autosampler, with a 100 μL sample loop, was coupled to a Sciex API4000 mass spectrometer. After injection of 50 μL sample, separation of the analytes was performed with an Agilent column 2.1 × 100 mm packed with material of Zorbax Extend 3.5 μm C-18. The flowrate was […] and the dual gradient mobile phase consisted of A: ultra-purified H2O with 0.1% formic acid and B: MeOH 100%. The applied gradient profile started at 50:50 A:B and increased linear to 95% B in 3.0 min. During 6 min a 5:95 A:B level is continued, after which it returned in 0.2 min to 50:50. Afterwards the system was equilibrated during 6 min at the starting level. Throughout the liquid–liquid extraction and HPLC-MS/MS the potential influence of light was minimized by working in an dark environment with aluminum foil as much as possible. Each analytical run included a set of freshly prepared calibration samples containing all compounds in the validated range of 2 nM to 400 nM.
# [3] = set-up: method as in PMID 9278892; settings: human blood incubated for 8 h at 37°C; cited from earlier work
# [4] = cited from earlier work
# [5] = set-up: method as in PMID 16545122; settings: oral dosages of up to 12 gram; cited from earlier work
# [6] = test system: mouse model for pancreatic cancer; set-up: method as in PMID 19528445; settings: cited from earlier work
# [7] = set-up: method as in PMID 9619120; settings: addition of 20 mg/kg piperine; rats; cited from earlier work
# [8] = with addition of β-glucuronidase, 0 h (trough), human plasma
# [9] = with addition of β-glucuronidase, 1.5 h (expected peak), human plasma
# [10] = without addition of β-glucuronidase, 0 h (trough), human plasma
# [11] = human, in vivo, Plasma level in individual participants
# [12] = human, in vivo, Mean concentration
compound,measurement,setting,value
"O=C(/C=C/C=C/c1ccc2c(c1)OCO2)N1CCCCC1 [Piperine, piperine]",IC50,[1],5.5 ± 0.7 µM
same,Fold lower than piperine plasma concentrations in literature that affect curcumin bioavailability,"[2]; human, in vivo",10-60 fold
same,Trough and peak level concentrations,"[2]; human, in vivo",1.0 to 1096 ng/mL
same,Detectability in plasma,[2]; in vivo,detectable in all participants
curcumin,Decrease of chemical t1/2,[3],50%
same,Curcumin concentrations,"[4]; oral lipid formulations, β-glucuronidase added prior to analysis",up to 1189.1 ± 518.8 ng/mL
same,Claimed plasma concentration relative to the concentration of unconjugated curcumin,[4]; β-glucuronidase added to plasma prior to analysis,up to 185 x
same,Levels of curcumin in the systemic circulation,[5],no detectable levels
same,Tumor growth,[6],reduced the tumor growth
same,Increase of bioavailability of curcumin,[7],154%
same,Fold below a plasma concentration expected to have a beneficial health effect,[2]; curcumin plasma level after adding β-glucuronidase (25.4 ng/mL),1000 fold
same,Cmax,"[2]; one of three participants using curcumin lipid formulations, dosage 800 mg",355 nM
same,Fold lower than the concentrations assessed in vitro,[2]; unconjugated free curcumin in plasma,> 1000 fold
same,Detectable levels in # persons,[2]; [8],27
same,Mean concentration,[2]; [8],14.3 ng/mL
same,Detectable levels in # persons,[2]; [9],42
same,Mean concentration,[2]; [9],25.4 ng/mL
same,Participants in whom curcumin after hydrolysis could not be detected (below LLOQ),"[2]; with β-glucuronidase, 1.5 h after dosing",5
same,Detectable levels in # persons,[2]; [10],1
same,Mean concentration,[2]; [10],10.1 ng/mL
same,Mean concentration,"[2]; without addition of β-glucuronidase, 1.5 h (expected peak), human plasma",1.0 ng/mL
same,Detectable levels in # persons,"[2]; without addition of β-glucuronidase, 1.5 h after intake (expected peak), human plasma",2
same,Plasma level in individual participants,"[2]; without β-glucuronidase, expected peak level, 1.5 h after intake",0.9 ng/mL and 1.1 ng/mL
same,Plasma level in individual participants,"[2]; without β-glucuronidase, trough level",10.1 ng/mL
"COc1cc(/C=C/C(O)=C/C(=O)/C=C/c2ccc(O)cc2)ccc1O [Demethoxycurcumin, demethoxycurcumin]",Plasma concentrations,"[2]; human, in vivo",1.0 to 18.6 ng/mL
same,Plasma level in individual participants,"[2]; human, in vivo",< 0.68 ng/mL
same,Concentration range,"[2]; human, in vivo, 0 h",1.4 to 8.6 ng/mL
same,Mean concentration,"[2]; human, in vivo, 0 h",3.5 ng/mL
same,Concentration range,"[2]; human, in vivo, 1.5 h",0.9 to 73.1 ng/mL
same,Mean concentration,"[2]; human, in vivo, 1.5 h",9.4 ng/mL
same,concentration at 1.5 h,[2]; [11],< 0.68 ng/mL
"COc1cc(CCC(=O)CC(=O)CCc2ccc(O)c(OC)c2)ccc1O [Tetrahydrocurcumin, tetrahydrocurcumin]",Plasma concentrations,"[2]; human, in vivo",1.0 to 18.6 ng/mL
same,Plasma level in individual participants,"[2]; human, in vivo",< 0.74 ng/mL
same,Concentration range,"[2]; human, in vivo, 0 h",0.8 to 81.2 ng/mL
same,Mean concentration,"[2]; human, in vivo, 0 h",14.6 ng/mL
same,Mean concentration,"[2]; human, in vivo, 1.5 h",21.6 ng/mL
same,Plasma level in individual participants,"[2]; human, in vivo, 1.5 h",20.9 ng/mL
same,concentration at 1.5 h,[2]; [12],18.6 ng/mL
same,concentration at 1.5 h,[2]; [11],16.4 ng/mL
"O=C(/C=C/c1ccc(O)cc1)CC(=O)/C=C/c1ccc(O)cc1 [Bisdemethoxycurcumin, bisdemethoxycurcumin]",Plasma concentrations,"[2]; human, in vivo",1.0 to 18.6 ng/mL
same,Plasma level in individual participants,"[2]; human, in vivo",2.1 ng/mL
same,Concentration range,"[2]; human, in vivo, 0 h",0.7 to 2.7 ng/mL
same,Mean concentration,"[2]; human, in vivo, 0 h",1.6 ng/mL
same,Concentration range,"[2]; human, in vivo, 1.5 h",0.7 to 60.4 ng/mL
same,Mean concentration,"[2]; human, in vivo, 1.5 h",6.1 ng/mL
same,concentration at 0 h,[2]; [12],2.1 ng/mL
same,concentration at 1.5 h,[2]; [11],< 0.62 ng/mL
